The results in this text go back to US9006442B2, “Cannabinoid receptor modulators” (Lupin Limited, priority 2011, dated 2015).

pEC50: −log10 of the molar value. Like-named read-outs stand apart in the source and are kept apart here.

This assay has as its target hCB2 (Homo sapiens, UniProt P34972). In words: cAMP determination in functional hCB2-CHO stable cells (HTRF). It counts as cell-based. On the procedure: In-Vitro Assay Method for Determination of cAMP in Functional hCB2—CHO Stable Cells:
Recombinant CHO-hCB2 cells (procured from Perkin Elmer Inc. USA) were propagated and maintained in Ham's F-12 complete medium containing 10% heat inactivated FBS (Sigma.UK) and 1× penstrep. For assay, 0.1×10^6 to 1.0×10^6 CHO-hCB2 cells were seeded in T-25 flask and grown to mid-log phase in culture media without antibiotics for 2-3 days. […] The test is performed in 96^1/2 area black well plates. For agonist testing, 20 μl cells/well were mixed with 20 μl of sample and 10 μl of forskolin (with final concentration of 10 μM) and incubated for 20 to 40 min at room temperature in incubator. The plate was then processed for the cAMP determination using cAMP Femto-2 HTRF kit (Cisbio, Germany) as per the manual.
The concentration of compound required to stimulate a half-maximal response (EC50) was determined using the GraphPad Prism software (version 5).
For orientation: Time-resolved FRET reads energy transfer from a long-lived donor to a nearby acceptor.

[1] abbreviates: CHO-hCB2 cells, cAMP, forskolin 10 μM, agonist testing, read-out: EC50 Range.

hCB2, sequence (P34972 whole entry): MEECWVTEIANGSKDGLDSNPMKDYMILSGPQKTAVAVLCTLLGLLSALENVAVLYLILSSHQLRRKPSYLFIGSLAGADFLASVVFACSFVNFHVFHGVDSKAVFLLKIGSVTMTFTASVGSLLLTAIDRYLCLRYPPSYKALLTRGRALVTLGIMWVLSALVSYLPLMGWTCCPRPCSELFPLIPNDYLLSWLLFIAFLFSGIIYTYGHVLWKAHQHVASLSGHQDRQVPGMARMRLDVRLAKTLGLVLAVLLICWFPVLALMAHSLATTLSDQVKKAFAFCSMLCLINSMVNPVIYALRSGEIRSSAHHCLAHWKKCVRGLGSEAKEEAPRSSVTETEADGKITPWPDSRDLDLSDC

Usually pEC50 stands for −log10 of the EC50, conventionally taken in molar units. Consider `COc1cccc(Nc2ccc(C(=O)N3CCCCC3)c3c(C)cccc23)c1` [Example-161, (4-((3-Methoxyphenyl)amino)-8-methylnaphthalen-1-yl)(piperidin-1-yl)methanone], for which the pEC50 under setting [1] is above 8.00. Regarding `Cc1cccc2c(Nc3cccc(F)c3F)ccc(C(=O)N3CC4CC4C3)c12` (stereo not drawn) [Example-166, 3-Azabicyclo[3.1.0]hexan-3-yl(4-((2,3-difluorophenyl)amino)-8-methylnaphthalen-1-yl)methanone], the pEC50 under setting [1] is above 8.00. On to `Cc1c(F)cccc1Nc1ccc(C(=O)N2CC3CC3C2)c2c(C)cccc12` (stereo not drawn) [Example-170, 3-Azabicyclo[3.1.0]hexan-3-yl(4-((3-fluoro-2-methylphenyl)amino)-8-methylnaphthalen-1-yl)methanone], for which the pEC50 under setting [1] was above 8.00. On to `Cc1cccc2c(Nc3cccc(F)c3F)ccc(C(=O)N3CC4CC(C3)O4)c12` [Example-172, 6-Oxa-3-azabicyclo[3.1.1]heptan-3-yl(4-((2,3-difluorophenyl)amino)-8-methylnaphthalen-1-yl)methanone], for which the negative logarithm of the EC50 (pEC50) was above 8.00. In the case of `O=C(NCC1CCOCC1)c1ccc(Nc2cccc(Cl)c2)c2ccccc12` [Example-180, 4-((3-Chlorophenyl)amino)-N-((tetrahydro-2H-pyran-4-yl)methyl)-1-naphthamide], the pEC50 is 6.00 to 8.00. Regarding `O=C(c1ccc(Nc2cc(F)cc(F)c2)c2ccccc12)N1CCOCC1` [Example-187, (4-((3,5-Difluorophenyl)amino)naphthalen-1-yl)(morpholino)methanone], the pEC50 under setting [1] is 6.00 to 8.00. Take `CC1COCC(C)N1C(=O)c1ccc(Nc2cc(F)cc(F)c2)c2ccccc12` (stereo not drawn) [Example-190, (4-((3,5-Difluorophenyl)amino)naphthalen-1-yl)(3,5-dimethylmorpholino)methanone]: under setting [1], the pEC50 is 6.00 to 8.00.

`O=C(c1ccc(Nc2ccc(Cl)cc2Cl)c2ccccc12)N1CCOCC1` [Example-197, (4-((2,4-Dichlorophenyl)amino)naphthalen-1-yl)(morpholino)methanone] had a pEC50 of 6.00 to 8.00.

`O=C(c1ccc(Nc2cccc(C(F)(F)F)c2)c2ccccc12)N1CCOCC1` [Example-201, Morpholino(4-((3-(trifluoromethyl)phenyl)amino)naphthalen-1-yl)methanone] gave a pEC50 above 8.00. `CN(C)C(=O)c1ccc(Nc2cccc(F)c2C(F)(F)F)c2cccc(Cl)c12` [Example-469, 8-Chloro-4-((3-fluoro-2-(trifluoromethyl)phenyl)amino)-N,N-dimethyl-1-naphthamide]: the negative-log EC50 (pEC50) under setting [1] was 6.00 to 8.00.

Consider `CCN(CC)C(=O)c1cnc(Nc2cccc(C(=O)OC)c2C)c2cccc(Cl)c12` [compound 249, Methyl 2-methyl-3-((5-chloro-4-(diethylcarbamoyl)isoquinolin-1-yl)amino)benzoate], for which the pEC50 under setting [1] is above 8.00.

In the case of `CCN(CC)C(=O)c1cnc(Nc2cccc(C(F)(F)F)c2F)c2cccc(C)c12` [compound 277, N,N-Diethyl-1-((2-fluoro-3-(trifluoromethyl)phenyl)amino)-5-methyl isoquinolin-4-carboxamide], the pEC50 was above 8.00. Turning to `CCN(CC)C(=O)c1cnc(Nc2cccc(C(F)(F)F)c2C)c2cccc(C)c12` [compound 279, N,N-Diethyl-5-methyl-1-((2-methyl-3-(trifluoromethyl)phenyl)amino) isoquinolin-4-carboxamide], the pEC50 is above 8.00. The same measure, in the same setting: next, `CCN(CC)C(=O)c1cnc(Nc2cccc(Cl)c2F)c2cccc(C)c12` [compound 282, 1-((3-Chloro-2-fluorophenyl)amino)-N,N-diethyl-5-methyl isoquinolin-4-carboxamide]: 6.00 to 8.00.

Consider `CCN(C)C(=O)c1cnc(Nc2cccc(C(F)(F)F)c2F)c2cccc(C)c12` [compound 292, N-Ethyl-1-((2-fluoro-3-(trifluoromethyl)phenyl)amino)-N,5-dimethyl isoquinolin-4-carboxamide], for which the pEC50 under setting [1] is above 8.00.

Take `CN(C)C(=O)c1cnc(Nc2cccc(C(F)(F)F)c2Cl)c2cccc(Cl)c12` [compound 317, 5-Chloro-1-((2-chloro-3-(trifluoromethyl)phenyl)amino)-N,N-di methylisoquinolin-4-carboxamide]: the pEC50 under setting [1] is above 8.00.

Molecule `CCN(CC)C(=O)c1cnc(Nc2cccc(Cl)c2C)c2cccc(Cl)c12` [compound 322, 5-Chloro-1-((3-chloro-2-methylphenyl)amino)-N,N-diethyl isoquinolin-4-carboxamide] had a pEC50 above 8.00. In the case of `CCN(CC)C(=O)c1cnc(Nc2cccc(C(F)(F)F)c2C)c2cccc(Cl)c12` [compound 325, 5-Chloro-N-N-diethyl-1-((2-methyl-3-(trifluoromethyl)phenyl)amino) isoquinolin-4-carboxamide], the pEC50 was above 8.00.

As to `CCN(CC)C(=O)c1cnc(Nc2cccc(C(F)(F)F)c2F)c2cccc(Cl)c12` [compound 328, 5-Chloro-N,N-diethyl-1-((2-fluoro-3-(trifluoromethyl)phenyl)amino) isoquinolin-4-carboxamide], under setting [1], the pEC50 is above 8.00.

For the molecule `Cc1c(Nc2ncc(C(=O)N(C)C)c3c(Cl)cccc23)cccc1C(F)(F)F` [compound 329, 5-Chloro-N,N-dimethyl-1-((2-methyl-3-(trifluoromethyl)phenyl)amino)isoquinolin-4-carboxamide], the pEC50 was above 8.00. Turning to `CN(C)C(=O)c1cnc(Nc2cccc(C(F)(F)F)c2F)c2cccc(Cl)c12` [compound 330, 5-Chloro-1-((2-fluoro-3-(trifluoromethyl)phenyl)amino)-N,N-dimethylisoquinolin-4-carboxamide], the negative-log EC50 (pEC50) under setting [1] was above 8.00. `CCN(C)C(=O)c1cnc(Nc2cccc(C(F)(F)F)c2C)c2cccc(Cl)c12` [compound 331, 5-Chloro-N-ethyl-N-methyl-1-((2-methyl-3-(trifluoromethyl)phenyl)amino)isoquinolin-4-carboxamide] showed a pEC50 above 8.00. For `Cc1c(Cl)cccc1Nc1ncc(C(=O)N(C)C)c2c(Cl)cccc12` [compound 332, 5-Chloro-1-((3-chloro-2-methylphenyl)amino)-N,N-dimethyl isoquinolin-4-carboxamide], the pEC50 was above 8.00. With `CN(C)C(=O)c1cnc(Nc2cccc(F)c2C(F)(F)F)c2cccc(Cl)c12` [compound 333, 5-Chloro-1-((3-fluoro-2-(trifluoromethyl)phenyl)amino)-N,N-di methylisoquinolin-4-carboxamide], the negative-log EC50 (pEC50) under setting [1] is above 8.00. Take `CCN(C)C(=O)c1cnc(Nc2cccc(C(F)(F)F)c2F)c2cccc(Cl)c12` [compound 334, 5-Chloro-N-ethyl-1-((2-fluoro-3-(trifluoromethyl)phenyl)amino)-N-methylisoquinolin-4-carboxamide]: the pEC50 under setting [1] was above 8.00. Turning to `CCN(C)C(=O)c1cnc(Nc2cccc(F)c2C(F)(F)F)c2cccc(Cl)c12` [compound 335, 5-Chloro-N-ethyl-1-((3-fluoro-2-(trifluoromethyl)phenyl)amino)-N-methylisoquinolin-4-carboxamide], under setting [1], the pEC50 was above 8.00. `CCN(C)C(=O)c1cnc(Nc2cccc(F)c2Cl)c2cccc(Cl)c12` [compound 336, 5-Chloro-1-((2-chloro-3-fluorophenyl)amino)-N-ethyl-N-methyl isoquinolin-4-carboxamide]: the pEC50 under setting [1] was above 8.00.

As for `CCN(C)C(=O)c1cnc(Nc2c(F)ccc(F)c2F)c2cccc(Cl)c12` [compound 355, 5-Chloro-N-ethyl-N-methyl-1-((2,3,6-trifluorophenyl)amino) isoquinolin-4-carboxamide], the negative-log EC50 (pEC50) under setting [1] is 6.00 to 8.00. In turn, `CCN(C)C(=O)c1cnc(Nc2cccc(Cl)c2C)c2cccc(Cl)c12` [compound 357, 5-Chloro-1-((3-chloro-2-methylphenyl)amino)-N-ethyl-N-methyl isoquinolin-4-carboxamide] had a pEC50 above 8.00. In turn, `CCN(C)C(=O)c1cnc(Nc2cccc(Cl)c2Cl)c2cccc(Cl)c12` [compound 363, 5-Chloro-1-((2,3-dichlorophenyl)amino)-N-ethyl-N-methyl isoquinolin-4-carboxamide] had a pEC50 above 8.00. As to `CC(C)N(C)C(=O)c1cnc(Nc2cccc(F)c2C(F)(F)F)c2cccc(Cl)c12` [compound 381, 5-Chloro-1-((3-fluoro-2-(trifluoromethyl)phenyl)amino)-N-isopropyl-N-methylisoquinolin-4-carboxamide], under setting [1], the negative-log EC50 (pEC50) was 6.00 to 8.00. In the case of `Cc1c(Cl)cccc1Nc1ncc(C(=O)N(C)C(C)C)c2c(Cl)cccc12` [compound 384, 5-Chloro-1-((3-chloro-2-methylphenyl)amino)-N-isopropyl-N-methylisoquinolin-4-carboxamide], the pEC50 was 6.00 to 8.00. In the case of `COC(=O)c1cccc(Nc2ccc(C(=O)N3CCCCC3)c3c(C)cccc23)c1` [compound 407, Methyl 3-((5-methyl-4-(piperidin-1-carbonyl)naphthalen-1-yl)amino) benzoate], the pEC50 under setting [1] is above 8.00.

Turning to `COC(=O)c1cccc(Nc2ccc(C(=O)N3CCOCC3)c3c(C)cccc23)c1` [compound 408, Methyl 3-((5-methyl-4-(morpholin-4-carbonyl)naphthalen-1-yl)amino) benzoate], the negative logarithm of the EC50 (pEC50) under setting [1] is above 8.00. For `COC(=O)c1cccc(Nc2ccc(C(=O)N3CCCCC3)c3c(C)cccc23)c1C` [compound 409, Methyl 2-methyl-3-((5-methyl-4-(piperidin-1-carbonyl)naphthalen-1-yl)amino)benzoate], under setting [1], the pEC50 was above 8.00. In the case of `COC(=O)c1cccc(Nc2ccc(C(=O)N3CCOCC3)c3c(C)cccc23)c1C` [compound 410, Methyl 2-methyl-3-((5-methyl-4-(morpholin-4-carbonyl)naphthalen-1-yl)amino)benzoate], under setting [1], the negative-log EC50 (pEC50) is above 8.00.
